Where “and” joins values, the source holds several entries; their conditions need not be identical. Identical values can stand only once.
Experiment: xn = mol fraction of the nth substance listed

CCO + O
Settings	viscosity
293.15 K, 100 kPa, x1 = 0.3	2.81 mPa·s
293.15 K, 100 kPa, x1 = 0.4	2.616 mPa·s
293.15 K, 101 kPa, x2 = 0.25	2.385 mPa·s
293.15 K, 101 kPa, x2 = 0.75	2.114 mPa·s
293.15 K, 101.33 kPa, x1 = 0.04164	1.564 mPa·s
293.15 K, 101.33 kPa, x1 = 0.2068	2.942 mPa·s
293.15 K, 101.33 kPa, x1 = 0.235	2.947 mPa·s
293.15 K, 101.33 kPa, x1 = 0.2499	2.922 mPa·s
293.15 K, 101.33 kPa, x1 = 0.3697	2.694 mPa·s
293.15 K, 101.33 kPa, x1 = 0.4771	2.381 mPa·s
293.15 K, 101.33 kPa, x1 = 0.61	2.036 mPa·s
293.15 K, 101.33 kPa, x1 = 0.7787	1.643 mPa·s
293.15 K, 101.33 kPa, x2 = 0.0102	1.261 mPa·s
298 K, 101 kPa, x1 = 0.09	1.81 mPa·s
298 K, 101 kPa, x1 = 0.1	2.409 mPa·s
298 K, 101 kPa, x1 = 0.4	2.234 mPa·s
298 K, 101 kPa, x1 = 0.5	2.013 mPa·s
298.15 K, 100 kPa, x1 = 0.2	2.335 mPa·s
298.15 K, 100 kPa, x1 = 0.4	2.148 mPa·s
298.15 K, 100 kPa, x1 = 0.78	1.423 mPa·s
298.15 K, 101 kPa, x1 = 0.0112	0.991 mPa·s
298.15 K, 101 kPa, x1 = 0.0129	1.007 mPa·s
298.15 K, 101 kPa, x1 = 0.0197	1.072 mPa·s
298.15 K, 101 kPa, x1 = 0.025	1.127 mPa·s
298.15 K, 101 kPa, x1 = 0.0289	1.166 mPa·s
298.15 K, 101 kPa, x1 = 0.0348	1.225 mPa·s
298.15 K, 101 kPa, x1 = 0.0439	1.322 mPa·s
298.15 K, 101 kPa, x1 = 0.0515	1.405 mPa·s
298.15 K, 101 kPa, x1 = 0.0677	1.576 mPa·s
298.15 K, 101 kPa, x1 = 0.1003	1.889 mPa·s
298.15 K, 101 kPa, x1 = 0.1025	1.91 mPa·s
298.15 K, 101 kPa, x1 = 0.1139	2 mPa·s
298.15 K, 101 kPa, x1 = 0.1302	2.109 mPa·s
298.15 K, 101 kPa, x1 = 0.14	2.1 mPa·s
298.15 K, 101 kPa, x1 = 0.1597	2.247 mPa·s
298.15 K, 101 kPa, x1 = 0.1837	2.322 mPa·s
298.15 K, 101 kPa, x1 = 0.28	2.25 mPa·s
298.15 K, 101 kPa, x1 = 0.3515	2.248 mPa·s
298.15 K, 101 kPa, x1 = 0.37	2.14 mPa·s
298.15 K, 101 kPa, x1 = 0.4801	1.995 mPa·s
298.15 K, 101 kPa, x1 = 0.613	1.725 mPa·s
298.15 K, 101 kPa, x1 = 0.6923	1.58 mPa·s
298.15 K, 101 kPa, x1 = 0.8006	1.401 mPa·s
298.15 K, 101 kPa, x1 = 0.8018	1.399 mPa·s
298.15 K, 101 kPa, x1 = 0.905	1.239 mPa·s
298.15 K, 101 kPa, x1 = 0.9518	1.167 mPa·s
298.15 K, 101 kPa, x2 = 0.25	2.046 mPa·s
298.15 K, 101 kPa, x2 = 0.5	2.322 mPa·s
298.15 K, 101 kPa, x2 = 0.75	1.778 mPa·s
298.15 K, 101 kPa, x2 = 0.9584	1.108 mPa·s
298.15 K, 101.33 kPa, x1 = 0.0144	0.96 mPa·s
298.15 K, 101.33 kPa, x1 = 0.0205	1.013 mPa·s
298.15 K, 101.33 kPa, x1 = 0.1135	1.851 mPa·s
298.15 K, 101.33 kPa, x1 = 0.1414	2.129 mPa·s
298.15 K, 101.33 kPa, x1 = 0.1893	2.29 mPa·s
298.15 K, 101.33 kPa, x1 = 0.2151	2.327 mPa·s
298.15 K, 101.33 kPa, x1 = 0.3285	2.273 mPa·s
298.15 K, 101.33 kPa, x1 = 0.3308	2.273 mPa·s
298.15 K, 101.33 kPa, x1 = 0.3461	2.247 mPa·s
298.15 K, 101.33 kPa, x1 = 0.3745	2.226 mPa·s
298.15 K, 101.33 kPa, x1 = 0.3801	2.212 mPa·s
298.15 K, 101.33 kPa, x1 = 0.4246	2.104 mPa·s
298.15 K, 101.33 kPa, x1 = 0.4299	2.112 mPa·s
298.15 K, 101.33 kPa, x1 = 0.4836	1.995 mPa·s
298.2 K, 100 kPa, x2 = 0.387	1.854 mPa·s
298.2 K, 100 kPa, x2 = 0.399	1.676 mPa·s
298.2 K, 100 kPa, x2 = 0.655	2.18 mPa·s
298.2 K, 100 kPa, x2 = 0.674	2.18 mPa·s
300.65 K, 101 kPa, x1 = 0.86	1.1 mPa·s
303.15 K, 101 kPa, x2 = 0.25	1.767 mPa·s
303.15 K, 101 kPa, x2 = 0.5	1.961 mPa·s
303.15 K, 101.33 kPa, x1 = 0.04164	1.179 mPa·s
303.15 K, 101.33 kPa, x1 = 0.08905	1.574 mPa·s
303.15 K, 101.33 kPa, x1 = 0.1435	1.9 mPa·s
303.15 K, 101.33 kPa, x1 = 0.2499	2.061 mPa·s
303.15 K, 101.33 kPa, x1 = 0.2652	2.056 mPa·s
303.15 K, 101.33 kPa, x1 = 0.2811	2.068 mPa·s
303.15 K, 101.33 kPa, x1 = 0.4771	1.79 mPa·s
303.15 K, 101.33 kPa, x1 = 0.61	1.567 mPa·s
303.15 K, 101.33 kPa, x1 = 0.7787	1.311 mPa·s
303.15 K, 101.33 kPa, x2 = 0.0102	1.035 mPa·s
308 K, 101 kPa, x1 = 0.09	1.343 mPa·s
308.15 K, 101 kPa, x2 = 0.25	1.54 mPa·s
308.15 K, 101 kPa, x2 = 0.5	1.676 mPa·s
308.15 K, 101 kPa, x2 = 0.9584	0.939 mPa·s
313.15 K, 101 kPa, x2 = 0.25	1.349 mPa·s
313.15 K, 101 kPa, x2 = 0.5	1.448 mPa·s
313.15 K, 101.33 kPa, x1 = 0.04164	0.909 mPa·s
313.15 K, 101.33 kPa, x1 = 0.1435	1.383 mPa·s
313.15 K, 101.33 kPa, x1 = 0.2068	1.494 mPa·s
313.15 K, 101.33 kPa, x1 = 0.2499	1.509 mPa·s
313.15 K, 101.33 kPa, x1 = 0.2652	1.514 mPa·s
313.15 K, 101.33 kPa, x1 = 0.2811	1.529 mPa·s
313.15 K, 101.33 kPa, x1 = 0.61	1.223 mPa·s
313.15 K, 101.33 kPa, x1 = 0.7787	1.05 mPa·s
317.15 K, 101 kPa, x1 = 0.86	0.779 mPa·s
318.15 K, 101 kPa, x2 = 0.25	1.185 mPa·s
318.15 K, 101 kPa, x2 = 0.5	1.255 mPa·s
318.15 K, 101 kPa, x2 = 0.9413	0.8181 mPa·s
323.15 K, 100 kPa, x1 = 0.2	1.113 mPa·s and 1.08 mPa·s
323.15 K, 100 kPa, x1 = 0.3	1.108 mPa·s
323.15 K, 100 kPa, x1 = 0.4	1.113 mPa·s and 1.072 mPa·s
323.15 K, 100 kPa, x1 = 0.6	0.9548 mPa·s and 0.9408 mPa·s
323.15 K, 100 kPa, x1 = 0.8	0.8101 mPa·s
323.15 K, 101 kPa, x2 = 0.25	1.055 mPa·s
323.15 K, 101 kPa, x2 = 0.5	1.102 mPa·s
323.15 K, 101 kPa, x2 = 0.75	0.89 mPa·s
323.15 K, 101.33 kPa, x1 = 0.04164	0.747 mPa·s
323.15 K, 101.33 kPa, x1 = 0.08905	0.924 mPa·s
323.15 K, 101.33 kPa, x1 = 0.1435	1.061 mPa·s
323.15 K, 101.33 kPa, x1 = 0.2068	1.152 mPa·s
323.15 K, 101.33 kPa, x1 = 0.235	1.157 mPa·s
323.15 K, 101.33 kPa, x1 = 0.2499	1.162 mPa·s
323.15 K, 101.33 kPa, x1 = 0.2652	1.177 mPa·s
323.15 K, 101.33 kPa, x1 = 0.2811	1.18 mPa·s
323.15 K, 101.33 kPa, x1 = 0.3697	1.162 mPa·s
323.15 K, 101.33 kPa, x1 = 0.4771	1.089 mPa·s
323.15 K, 101.33 kPa, x1 = 0.61	0.981 mPa·s
323.15 K, 101.33 kPa, x1 = 0.7787	0.866 mPa·s
323.15 K, 101.33 kPa, x2 = 0.0102	0.729 mPa·s

COCCOCCOCCOCCOC + O
viscosity [mPa·s], 101 kPa
Settings	298 K	303.15 K	308.15 K	313.15 K	318.15 K	323.15 K
x1 = 0.00562	–	1.177	1.049	0.937	0.839	0.767
x1 = 0.0075	1.323	–	–	–	–	–
x1 = 0.0142	1.533	–	–	–	–	–
x1 = 0.02904	–	2.119	1.844	1.618	1.431	1.275
x1 = 0.0297	2.433	–	–	–	–	–
x1 = 0.0419	3.198	–	–	–	–	–
x1 = 0.04576	–	3.14	2.677	2.309	1.992	1.766
x1 = 0.0593	4.289	–	–	–	–	–
x1 = 0.07654	–	4.235	3.566	3.043	2.621	2.273
x1 = 0.0784	5.24	–	–	–	–	–
x1 = 0.1006	–	4.915	4.126	3.487	2.994	2.593
x1 = 0.1139	6.253	–	–	–	–	–
x1 = 0.1272	–	5.245	4.392	3.729	3.181	2.758
x1 = 0.1398	6.469	–	–	–	–	–
x1 = 0.1512	–	5.331	4.475	3.802	3.273	2.838
x1 = 0.1543	6.411	–	–	–	–	–
x1 = 0.2009	–	5.151	4.371	3.744	3.243	2.839
x1 = 0.2493	–	4.865	4.154	3.6	3.128	2.76
x1 = 0.2986	–	4.539	3.909	3.397	2.982	–
x1 = 0.3508	–	4.269	3.695	3.228	2.845	2.528
x1 = 0.4016	–	4.026	3.508	3.089	2.735	2.433
x1 = 0.5033	–	3.66	3.22	2.853	2.543	2.281
x1 = 0.5975	–	3.428	3.025	2.698	2.42	2.183
x1 = 0.7029	–	3.236	2.883	2.577	2.323	–
x1 = 0.8018	–	3.113	2.78	2.497	2.257	2.047
x1 = 0.8532	–	3.066	2.744	2.467	2.231	2.029
x1 = 0.9025	–	3.019	2.704	–	2.203	–
x1 = 0.9447	–	2.982	2.679	2.414	2.182	1.99

Reference: the CheMixHub viscosity set
